Data reported in patent publication US12527833B2, “Pharmaceutical composition made from hydrophobic phytochemicals dispersed in sesame oil to enhance bioactivity” (ARJUNA NATURAL PVT. LTD., priority 2017, dated 2026).

Experiments:
[1] = system: Carrageenan induced paw edema; experiment: Carrageenan paw edema in rats: Boswellia dispersion at different SSA values (Example 9); assay type: in vivo
Procedure: The animals were housed in polypropylene cages and maintained under standard animal house conditions (12:12 hour light/dark cycle at 24±2° C. and 45-65% relative humidity). The rats had free access to standard pellet diet and water. 15 rats were divided into 5 groups comprising of 3 rats in each group. The rats were deprived of food, but had free access to drinking water for 12 h prior to the experiment. The treatment was as follows: After 12 hour fasting, baseline paw volume was recorded for each rat using digital plethysmometer (Ugo Basile, […]). Carrageenan (0.1 ml of 1%) in saline (0.9% NaCl) was injected into the plantar surface of the right hind paw of the animals. The experimental groups were given the designated extract/standard orally, 30 minutes prior to the injection of the carrageenan. After injection of carrageenan, paw volume was recorded at 3 hr to 6 hr post carrageenan. The edema was expressed as an increase in the volume of paw from baseline value, and the percentage of inhibition for each rat was calculated. • Group 1: 50 mg/Kg BS-1 (SSA 200-500 m^2/kg). • Group 2: 50 mg/Kg, BS-2 (SSA 700-1000 m^2/kg) • Group 3: 50 mg/Kg BS-3 (SSA 1100-1200 m^2/kg) • Group 4: 50 mg/Kg BS-4 (SSA>1300 m^2/kg) • Group 5: 10 mg/Kg Diclofenac.

[2] = system: Carrageenan Induced Paw Edema; experiment: Anti-inflammatory activity in carrageenan induced paw edema in rats (Example 11); assay type: in vivo, SD rats; conditions: 6 h after carrageenan; oral; dose per group 10-100 mg/Kg; 6 rats per group
Procedure: SD rats (M/F) weighing 180-220 gm. were selected for the study. The animals were acclimatized for a period of five days and they were fed with standard pellet diet and water ad libitum. After five days of acclimatization, the rats were deprived of food, but had free access to drinking water for 12 hours prior to the experiment. Right hind paw of each rat was marked at the tibio-tarsal junction and baseline paw volume was determined using a digital plethysmometer (UGO BASILE, ITALY). Rats were divided into different groups keeping 6 rats in each group. Test sample/standard NSAID/vehicle was fed orally at designated dose. After 30 minutes of test sample/standard/vehicle, 0.1 ml carrageenan (1% suspension in 0.9% NaCl) was injected to the animals in subplantar region of the right hind paw. The paw volume was again determined for all the animals at 6 h after carrageenan injection and percentage inhibition was calculated by using following formula: […]

O=C(O)Cc1ccccc1Nc1c(Cl)cccc1Cl [Diclofenac]
Percentage inhibition (%) 3HR ([1]; 3 hr post carrageenan, oral, BS samples 50 mg/kg, Diclofenac 10 mg/kg): 68%
Percentage inhibition (%) 6HR ([1]; 6 hr post carrageenan, oral, BS samples 50 mg/kg, Diclofenac 10 mg/kg): 94%
Avrage percentage inhibition ([1]; average of 3HR and 6HR): 81%
Percentage inhibition in 6 Hours [2]: 86%
